Source: ChEMBL document CHEMBL3407361, “Structural exploration, synthesis and pharmacological evaluation of novel 5-benzylidenethiazolidine-2,4-dione derivatives as iNOS inhibitors against inflammatory diseases” (Eur J Med Chem, 2015)
≈ marks a conversion by molar mass, not a printed value. Calls of active or inactive are those of the source. The calls are words filed in the database; no cut-off is given here.

Legend:
RAW264.7 [1] = test: Inhibition of LPS-induced nitric oxide production in mouse RAW264.7 cells pre-incubated at 100 uM for 2 hrs before LPS challenge measured 18 hrs post LPS challenge by Griess method; assay type: functional, cell-based
RAW264.7 [2] = test: cells; conditions: Mus musculus, RAW264.7, 24 h
Description: Cytotoxicity against mouse RAW264.7 cells after 24 hrs by MTT assay

RAW264.7 [3] = test: Cytotoxicity against LPS-stimulated mouse RAW264.7 cells after 24 hrs by MTT assay; assay type: cell-based; conditions: RAW264.7, 24 h
[4] = biological target: T1, Nitric oxide synthase, inducible (Mus musculus, UniProt P29477); test: Inhibition of iNOS-induced nitric oxide production in LPS-stimulated mouse RAW264.7 cells pre-incubated for 2 hrs before LPS challenge by fluorescence assay; assay type: cell-based
T1 sequence (P29477 whole entry): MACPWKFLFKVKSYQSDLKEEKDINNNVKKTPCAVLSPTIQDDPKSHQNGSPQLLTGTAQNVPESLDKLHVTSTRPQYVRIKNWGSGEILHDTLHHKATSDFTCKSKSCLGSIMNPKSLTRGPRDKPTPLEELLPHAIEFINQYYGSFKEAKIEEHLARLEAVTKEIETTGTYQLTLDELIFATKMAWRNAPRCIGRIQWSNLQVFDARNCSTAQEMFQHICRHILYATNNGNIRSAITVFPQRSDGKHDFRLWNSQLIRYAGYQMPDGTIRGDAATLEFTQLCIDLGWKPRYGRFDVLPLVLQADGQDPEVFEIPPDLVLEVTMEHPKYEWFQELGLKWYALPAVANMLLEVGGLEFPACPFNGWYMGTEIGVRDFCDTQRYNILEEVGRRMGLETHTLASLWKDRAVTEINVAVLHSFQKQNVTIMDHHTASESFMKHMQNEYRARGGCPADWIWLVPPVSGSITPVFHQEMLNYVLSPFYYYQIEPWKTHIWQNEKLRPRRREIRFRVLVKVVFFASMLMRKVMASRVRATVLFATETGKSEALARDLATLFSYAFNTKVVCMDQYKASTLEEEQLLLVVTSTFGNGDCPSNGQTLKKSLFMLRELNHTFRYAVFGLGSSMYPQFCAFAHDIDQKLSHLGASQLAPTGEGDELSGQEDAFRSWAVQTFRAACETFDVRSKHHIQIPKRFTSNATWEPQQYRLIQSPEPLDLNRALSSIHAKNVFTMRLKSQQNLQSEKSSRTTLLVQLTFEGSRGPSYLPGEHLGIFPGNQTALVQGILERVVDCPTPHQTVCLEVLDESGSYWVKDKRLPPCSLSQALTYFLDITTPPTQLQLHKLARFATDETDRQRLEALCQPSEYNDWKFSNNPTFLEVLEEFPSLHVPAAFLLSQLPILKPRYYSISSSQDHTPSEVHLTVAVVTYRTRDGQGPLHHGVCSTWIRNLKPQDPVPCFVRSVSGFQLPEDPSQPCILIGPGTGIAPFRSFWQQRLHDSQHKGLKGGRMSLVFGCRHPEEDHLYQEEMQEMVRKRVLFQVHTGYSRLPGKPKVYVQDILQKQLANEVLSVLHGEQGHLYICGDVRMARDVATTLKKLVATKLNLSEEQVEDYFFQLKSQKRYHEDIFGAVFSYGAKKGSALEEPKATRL

RAW264.7 [5] = test: Inhibition of LPS-induced nitric oxide production in mouse RAW264.7 cells pre-incubated for 2 hrs before LPS challenge measured 18 hrs post LPS challenge by Griess method; assay type: functional, cell-based
[6] = Solubility in EtOH assessed as maximum soluble concentration at 25 degC by nephelometry; assay type: physicochemical; conditions: ethanol
[7] = Solubility in PBS at pH 7.4 assessed as maximum soluble concentration at 25 degC by nephelometry; assay type: physicochemical
Mus musculus = test: Antiinflammatory activity in ICR mouse assessed as inhibition of carrageenan-induced paw edema at 10 mg/kg, po administered 30 mins before carrageenan challenge measured after 2 hrs; assay type: functional
[8] = Half life in Sprague-Dawley rat at 5 mg/kg; assay type: ADME, organism-based; parameters: dose 5 mg/kg; conditions: in vivo
[9] = Cmax in Sprague-Dawley rat at 5 mg/kg; assay type: ADME, organism-based; parameters: dose 5 mg/kg; conditions: in vivo
[10] = Tmax in Sprague-Dawley rat at 5 mg/kg; assay type: ADME, organism-based; parameters: dose 5 mg/kg; conditions: in vivo
Rattus norvegicus = test: Antiinflammatory activity in CFA-induced Lewis rat arthritis model at 10 mg/kg, po; assay type: functional, organism-based; parameters: dose 10 mg/kg
[11] = Half life in Sprague-Dawley rat at 20 mg/kg, po; assay type: ADME, organism-based; parameters: dose 20 mg/kg, route oral; conditions: in vivo
[12] = AUC (0 to t) in Sprague-Dawley rat at 20 mg/kg, po; assay type: ADME, organism-based; parameters: dose 20 mg/kg, route oral; conditions: plasma
[13] = AUC (0 to t) in Sprague-Dawley rat at 5 mg/kg; assay type: ADME, organism-based; parameters: dose 5 mg/kg; conditions: plasma
[14] = Tmax in Sprague-Dawley rat at 20 mg/kg, po; assay type: ADME, organism-based; parameters: dose 20 mg/kg, route oral; conditions: in vivo
[15] = Cmax in Sprague-Dawley rat at 20 mg/kg, po; assay type: ADME, organism-based; parameters: dose 20 mg/kg, route oral; conditions: in vivo
[16] = Oral bioavailability in Sprague-Dawley rat at 20 mg/kg; assay type: ADME, organism-based; conditions: in vivo

Row | IC50 (RAW264.7 [2]) | IC50 (RAW264.7 [5]) | SMILES | inhibition (RAW264.7 [1]) | IC50 (RAW264.7 [3]) | other results
1 |  |  | O=C(COc1ccc(/C=C2\SC(=O)N(CCN3CCCCC3)C2=O)cc1)Nc1cccc(Cl)c1 | Active |  | 
2 | > 80 µM | 53.2 µM | CC(CN(C)C)CN1C(=O)S/C(=C\c2ccc(OCC(=O)Nc3cccc(Cl)c3)cc2)C1=O (centres undefined) | Active | > 80 µM | IC50 [4]: 32.1 µM
3 | > 80 µM | 21.3 µM | O=C(COc1ccc(/C=C2\SC(=O)NC2=O)cc1)Nc1cccc(Cl)c1 |  | > 80 µM | solubility kinetic [6]: 1500 µg/mL (≈ 3.86 mM); solubility kinetic [7]: < 500 µg/mL; inhibition in vivo at 10 mg/kg (Mus musculus): 37.8%
4 |  |  | O=C(COc1ccc(C=C2C(=O)NC(=S)NC2=O)cc1)Nc1cccc(Cl)c1 | Active |  | 
5 | > 80 µM | 40.3 µM | COc1ccc2c(c1)c(CC(=O)O)c(C)n2C(=O)c1ccc(Cl)cc1 [INDOMETHACIN] |  | > 80 µM | inhibition in vivo at 10 mg/kg (Mus musculus): 33.5%
6 |  |  | COC(=O)CCN1C(=O)S/C(=C\c2ccc(OCC(=O)Nc3cccc(Cl)c3)cc2)C1=O | Active |  | 
7 |  |  | O=C(COc1ccc(/C=C2\SC(=O)N(CC(=O)Nc3ccccc3)C2=O)cc1)Nc1cccc(Cl)c1 | Active |  | 
8 |  |  | O=C(COc1cccc(/C=C2\SC(=O)NC2=O)c1)Nc1cccc(Cl)c1 | Active |  | 
9 |  |  | O=C(COc1ccc(/C=C2\SC(=O)N(CCN3CCCC3)C2=O)cc1)Nc1cccc(Cl)c1 | Active |  | 
10 | > 80 µM | 45.6 µM | COc1cc(/C=C2\SC(=O)NC2=O)cc(OC)c1OCC(=O)Nc1cccc(Cl)c1 | Active | > 80 µM | half-life [8]: 7.83 h; Cmax [9]: 332 ng/mL; solubility kinetic [6]: 3100 µg/mL (≈ 6.91 mM); Tmax [10]: 4.2 min; solubility kinetic [7]: < 500 µg/mL; Activity (Rattus norvegicus): Active; half-life [11]: 5.9 h; AUC(0-t) [12]: 421 ng·h/mL; AUC(0-t) [13]: 387 ng·h/mL; Tmax [14]: 2.27 h; IC50 [4]: 25.2 µM; inhibition in vivo at 10 mg/kg (Mus musculus): 26.1%; Cmax [15]: 46.2 ng/mL; bioavailability [16]: 27.2%
11 |  |  | N=C1NC(=O)/C(=C/c2ccc(OCC(=O)Nc3cccc(Cl)c3)cc2)S1 | Active |  | 
12 | > 80 µM | 75.4 µM | O=C(COc1ccc(/C=C2\NC(=O)N(Cc3ccccc3)C2=O)cc1)Nc1cccc(Cl)c1 | Active | 46.3 µM | IC50 [4]: 43.2 µM
13 |  |  | C#CCN1C(=O)S/C(=C\c2ccc(OCC(=O)Nc3cccc(Cl)c3)cc2)C1=O | Active |  | 
14 | 68.4 µM | > 80 µM | COCN1C(=O)S/C(=C\c2ccc(OCC(=O)Nc3cccc(Cl)c3)cc2)C1=O |  | 72.5 µM | 
15 | > 80 µM | 68.9 µM | O=C(O)CN1C(=O)/C(=C/c2ccc(OCC(=O)Nc3cccc(Cl)c3)cc2)SC1=S | Active | > 80 µM | IC50 [4]: 47.8 µM
